Test results taken from patent US20240174662A1, “SMALL MOLECULE INHIBITORS OF SALT INDUCIBLE KINASES” (Janssen Biotech, Inc., priority 2021, published 2024).
pIC50: −log10 of the molar value.

Target: SIK2 (Homo sapiens (Human), UniProt Q9H0K1)
Experiment: SIK2 Enzymatic Assay Version 2 (High ATP)
Format: biochemical
Settings: 3 mM ATP and 200 μM HDAC5tide final, ADP-Glo Max luminescence
Outline: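 Luminescent ADP-Glo Max read-out: depletion reagent 2 h, then detection reagent 1 h. Before the reaction, compounds were incubated 30 min with enzyme added at 6 nM (twice final concentration), with all steps at room temperature.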

Chain of SIK2 (Q9H0K1 whole entry, species assumed): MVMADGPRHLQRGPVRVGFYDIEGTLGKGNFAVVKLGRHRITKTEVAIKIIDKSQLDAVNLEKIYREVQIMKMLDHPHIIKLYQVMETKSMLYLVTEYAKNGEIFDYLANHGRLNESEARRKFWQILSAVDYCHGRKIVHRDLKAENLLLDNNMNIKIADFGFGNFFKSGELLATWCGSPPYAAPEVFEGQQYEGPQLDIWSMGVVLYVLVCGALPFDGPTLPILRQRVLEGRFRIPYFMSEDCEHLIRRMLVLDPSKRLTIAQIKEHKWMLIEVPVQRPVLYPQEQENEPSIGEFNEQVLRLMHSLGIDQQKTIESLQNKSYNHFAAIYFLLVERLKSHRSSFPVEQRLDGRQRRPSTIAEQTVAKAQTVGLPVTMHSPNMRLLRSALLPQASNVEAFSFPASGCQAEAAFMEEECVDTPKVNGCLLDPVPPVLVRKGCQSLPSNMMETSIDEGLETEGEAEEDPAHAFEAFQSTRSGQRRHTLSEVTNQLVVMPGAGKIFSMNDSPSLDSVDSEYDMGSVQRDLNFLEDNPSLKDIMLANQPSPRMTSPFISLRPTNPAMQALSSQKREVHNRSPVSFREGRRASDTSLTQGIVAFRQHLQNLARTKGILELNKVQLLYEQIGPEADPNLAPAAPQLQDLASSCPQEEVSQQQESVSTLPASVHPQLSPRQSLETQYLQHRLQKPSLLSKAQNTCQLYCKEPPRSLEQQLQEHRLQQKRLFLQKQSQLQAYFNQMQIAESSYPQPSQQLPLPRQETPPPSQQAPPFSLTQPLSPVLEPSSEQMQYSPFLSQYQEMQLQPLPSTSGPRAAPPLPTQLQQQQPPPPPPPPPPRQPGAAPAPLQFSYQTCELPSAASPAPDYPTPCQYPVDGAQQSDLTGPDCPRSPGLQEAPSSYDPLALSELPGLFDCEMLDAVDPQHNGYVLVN

SMILES | pIC50
C[C@H]1CNC[C@H]1Oc1cnn(C)c1-c1ccn2nc(NC(=O)C3CC3)cc2c1 (single isomer, unassigned) [Example 413, (3*S,4*S)—N-[5-[2-methyl-4-(4-methylpyrrolidin-3-yl)oxy-pyrazol-3-yl]pyrazolo[1,5-a]pyridin-2-yl]cyclopropanecarboxamide] | 6.86
Cc1onc(O[C@H]2CCN(C)C2)c1-c1ccn2nc(NC(=O)C3CC3)cc2c1 [Example 382, N-[5-[5-methyl-3-[(3S)-1-methylpyrrolidin-3-yl]oxy-isoxazol-4-yl]pyrazolo[1,5-a]pyridin-2-yl]cyclopropanecarboxamide] | 7.02
Cc1onc(OC[C@H]2NCC2(C)C)c1-c1ccn2nc(NC(=O)C3CC3)cc2c1 [Example 89, N-[5-[3-[[(2S)-3,3-dimethylazetidin-2-yl]methoxy]-5-methyl-isoxazol-4-yl]pyrazolo[1,5-a]pyridin-2-yl]cyclopropanecarboxamide] | 7.80
C[C@H]1CN[C@@H]1COc1cnn(C)c1-c1ccn2nc(NC(=O)C3CC3)cc2c1 [Example 341, N-[5-[2-methyl-4-[[(2S,3S)-3-methylazetidin-2-yl]methoxy]pyrazol-3-yl]pyrazolo[1,5-a]pyridin-2-yl]cyclopropanecarboxamide] | 7.24
CN1CC[C@@H]1COc1cnn(C)c1-c1ccn2nc(Nc3ccc4c(n3)CCOC4)cc2c1 [Example 114, N-[5-[2-methyl-4-[[(2R)-1-methylazetidin-2-yl]methoxy]pyrazol-3-yl]pyrazolo[1,5-a]pyridin-2-yl]-7,8-dihydro-5H-pyrano[4,3-b]pyridin-2-amine] | 8.96
CCN1CC[C@@H]1COc1cnn(C)c1-c1ccn2nc(Nc3cc(C(F)(F)F)ncn3)cc2c1 [Example 164, 5-[4-[[(2R)-1-ethylazetidin-2-yl]methoxy]-2-methyl-pyrazol-3-yl]-N-[6-(trifluoromethyl)pyrimidin-4-yl]pyrazolo[1,5-a]pyridin-2-amine] | 8.82
Cc1onc(OCC2(F)CN(C)C2)c1-c1ccn2nc(NC(=O)C3CC3)cc2c1 [Example 84, N-[5-[3-[(3-fluoro-1-methyl-azetidin-3-yl)methoxy]-5-methyl-isoxazol-4-yl]pyrazolo[1,5-a]pyridin-2-yl]cyclopropanecarboxamide] | 6.69
Cc1ncc(Nc2cc3cc(-c4c(OC[C@H]5CCN5C)cnn4C)ccn3n2)nc1C [Example 23, N-(5,6-Dimethylpyrazin-2-yl)-5-[2-methyl-4-[[(2R)-1-methylazetidin-2-yl]methoxy]pyrazol-3-yl]pyrazolo[1,5-a]pyridin-2-amine] | 8.92
Cc1cc(Nc2cc3cc(-c4c(OC[C@H]5OCC[C@@H]5O)cnn4C)ccn3n2)nc(C)n1 [Example 300, (2R,3S)-2-[[5-[2-[(2,6-dimethylpyrimidin-4-yl)amino]pyrazolo[1,5-a]pyridin-5-yl]-1-methyl-pyrazol-4-yl]oxymethyl]tetrahydrofuran-3-ol] | 7.97
CCN1CC[C@@H]1COc1cnn(C(F)F)c1-c1ccn2nc(Nc3cc(C)c(=O)n(C)n3)cc2c1 [Example 484, 6-[[5-[2-(difluoromethyl)-4-[[(2R)-1-ethylazetidin-2-yl]methoxy]pyrazol-3-yl]pyrazolo[1,5-a]pyridin-2-yl]amino]-2,4-dimethyl-pyridazin-3-one] | 9.05
CC[C@@H]1CN(C)[C@@H]1COc1cnn(C)c1-c1ccn2nc(NC(=O)C3CC3)cc2c1 [Example 11, N-[5-[4-[[(2S,3R)-3-ethyl-1-methyl-azetidin-2-yl]methoxy]-2-methyl-pyrazol-3-yl]pyrazolo[1,5-a]pyridin-2-yl]cyclopropanecarboxamide] | 6.93
Cc1nc(C)c(C)c(Nc2cc3cc(-c4c(OC[C@H]5CCN5C)cnn4C)ccn3n2)n1 [Example 57, 5-[2-methyl-4-[[(2R)-1-methylazetidin-2-yl]methoxy]pyrazol-3-yl]-N-(2,5,6-trimethylpyrimidin-4-yl)pyrazolo[1,5-a]pyridin-2-amine] | 6.33
